# Reference: article PMC11752117 (Journal of Traditional and Complementary Medicine, 2024)
# How the values were obtained:
# Assay in all cases: microbe, parasite or virus in culture
# Format in all cases: cell-based
# SARS-CoV-2 Alpha variant = conditions: Severe acute respiratory syndrome coronavirus 2, A549, 48 h, read-out: IC50, inhibition of SARS-CoV-2 infection, Alpha, A549-ACE2-TMPRSS2, 1.56 to 50 μM for 2 days, n = 2
# [1] = test system: SARS-CoV-2 Omicron BA.2 variant; conditions: Severe acute respiratory syndrome coronavirus 2, A549, 48 h, read-out: IC50, inhibition of SARS-CoV-2 infection
# SARS-CoV-2 Delta variant = conditions: Severe acute respiratory syndrome coronavirus 2, A549, 48 h, read-out: IC50, inhibition of SARS-CoV-2 infection
smiles,measurement,setting,value
"C=C1CC[C@@H]2[C@](C)(CO)[C@H](O)CC[C@@]2(C)[C@@H]1C/C=C1/C(=O)OC[C@H]1O [Andrographolide, andrographolide]",IC50,SARS-CoV-2 Alpha variant,7.08 µM
same,IC50,[1],4.62 µM
same,IC50,SARS-CoV-2 Delta variant,7.35 µM
